# Marks after values point to notes of the source that are not given here.
# How the values were obtained:
# [1] = system: Bcl-2 gene; test: rtPCR gene expression in RPMI cells; type: cell-based, human
# [2] = system: 1BR3 human fibroblasts; test: MTT cytotoxicity assay for healthy human cells; type: cell-based; details: 1BR3 healthy cells, 48 h
# Method: (§1) The in vitro cytotoxicity was determined by means of (4,5-dimethylthiazol-2-yl)-2,5-diphenyltetrazolium bromide (MTT) method. In brief, HaCaT, 1BR3 cells were seeded in 96-well plates at an initial density of […] and allowed to attach. Next, the old medium was removed and a fresh one was added containing five concentrations (100 µM, 10 µM, 1 µM, 0.1 µM, and 0.01 µM) of the tested compounds 6 and 7 after which cells were incubated for 48 h. The control cells were treated with the same amount of DMSO, the highest concentration of DMSO present in the medium being 0.5%. A volume of […] MTT reagent (5 mg/mL) was added in each well. During a 4 h contact period, the intact mitochondrial reductase converted and precipitated MTT as blue crystals. The precipitated crystals were dissolved in […] of lysis solution provided by the manufacturer (Sigma-Aldrich). Finally, the reduced MTT was spectrophotometrically analyzed at 570 nm, using a microplate reader (xMark Microplate Spectrophotometer, Bio-Rad, Hercules, CA, USA). GI50 was calculated for each healthy cell line.
# [3] = system: HaCaT—human keratinocytes; test: MTT cytotoxicity assay for healthy human cells; type: cell-based; details: 48 h
# Method: as §1
# [4] = system: Bad gene; test: rtPCR gene expression in Sk-Mel-28 cells; type: cell-based, human
# [5] = system: Bcl-2 gene; test: rtPCR gene expression in Sk-Mel-28 cells; type: cell-based, human
# [6] = system: Bad gene; test: rtPCR gene expression in A375 cells; type: cell-based, human
# From the text: (§2) We applied rtPCR techniques in order to investigate the effect of our two compounds on the anti-apoptotic Bcl-XL and Bcl-2 genes as well as the proapoptotic Bak and Bad genes (Table 4). […] Therefore, we may presume that the apoptotic mechanism of both compounds against the A375 cells is not mediated by the tested genes or that alterations in their ratio are the underlying mechanism.
# [7] = system: Bcl-2 gene; test: rtPCR gene expression in A375 cells; type: cell-based, human
# From the text: as §2
# [8] = system: Bak gene; test: rtPCR gene expression in A375 cells; type: cell-based, human
# From the text: as §2
# [9] = system: Bcl-XL gene; test: rtPCR gene expression in A375 cells; type: cell-based, human
# From the text: as §2
# [10] = system: SK-MEL-28 melanoma cells; test: DAPI staining assay; type: cell-based, human; details: 24 h
# Method: (§3) For this purpose, the melanoma cell lines selected were A375, RPMI, and SK-MEL-28, given that these three lines have very good correlation coefficient scores with tumor cells originating from a wide range of malignant tumors, based on transcriptional similarity. This feature can also lead to increased clinical applicability potential for the tested substances. The two compounds were tested against three human melanoma cell lines: A375, RPMI, and SK-MEL-28 melanoma cell lines by applying 0.1, 1, and 5 μM solutions, respectively. 4′,6-Diamidino-2-phenylindole (DAPI) is a DNA-specific marker which allows the direct fluorescent blue staining of nuclei against a dark background, widely used in life sciences research. In effect, the DAPI stain binds to chromatin within the nuclei and provides their clear outline under the blue light (405 nm) while the cytoplasmic medium remains non-fluorescent. Moreover, due to its lack of interference with DNA–linker interactions, DAPI stain can provide fine details of nuclei’ shapes instead of merely highlighting their centers which contain the highest concentration of nucleic acids.
# (§4) The DAPI assay was performed on three human melanoma cell lines: A375, RPMI, and SK-MEL-28. The cells were cultured in 24-well plates at 2x10^5 cells/well; compounds 6 and 7 in three different concentrations (0.1, 1, and 5 μM); and three DMSO concentrations (0.1, 1, and 5 μM) were used to stimulate cells. The immunofluorescent staining technique was performed according to a previously described protocol and adapted to our laboratory conditions. Thus, after 24 h of stimulation, the cells were fixed with 4% paraformaldehyde and incubated at room temperature for 1 h. Cell permeability was 30 min later performed with 2% Triton X solution in phosphate-buffered saline (PBS). The 300 nM 4’,6-diamidino-2-phenylindole (DAPI) staining was used to visualize cell nuclei under the fluorescence microscope at 40x magnification using CellSens V1.15 software (Olympus, Tokyo, Japan) and Image J software.
# [11] = system: RPMI melanoma cells; test: DAPI staining assay; type: cell-based, human; details: 24 h
# Method: as §3, §4
# [12] = system: A375 melanoma cells; test: DAPI staining assay; type: cell-based, human; details: 24 h
# Method: as §3, §4
# [13] = system: Bak gene; test: rtPCR gene expression in RPMI cells; type: cell-based, human
# From the text: as §2
# [14] = system: Bcl-XL gene; test: rtPCR gene expression in RPMI cells; type: cell-based, human
# From the text: as §2
Structure (SMILES),"Bcl-2 gene expression, Mean [1]",GI50 [2] [µM],"GI50 ([2]; Homo sapiens, Fibroblast) [µM]",GI50 [3] [µM],"GI50 ([3]; Homo sapiens, HaCaT) [µM]","Bad gene expression, Mean [4]","Bcl-2 gene expression, Mean [5]","Bad gene expression, Mean [6]","Bcl-2 gene expression, Mean [7]","Bak gene expression, Mean [8]","Bcl-XL gene expression, Mean [9]","Nuclear changes, DAPI staining ([10]; SK-Mel-28, 0.1 μM)","Nuclear changes, DAPI staining ([10]; SK-Mel-28, 5 μM)","Nuclear changes, DAPI staining ([11]; 0.1 μM)","Nuclear changes, DAPI staining ([11]; 5 μM)","Nuclear changes, DAPI staining ([12]; A375, 0.1 μM)","Nuclear changes, DAPI staining ([12]; A375, 1 μM)","Nuclear changes, DAPI staining ([12]; A375, 5 μM)","Bak gene expression, Mean [13]","Bcl-XL gene expression, Mean [14]",further results
"COC(=O)[C@]12CC[C@@H](C(=O)/C=C/c3cccnc3)[C@@H]1[C@H]1CC[C@@H]3[C@@]4(C)C/C(=C\c5cccnc5)C(=O)C(C)(C)[C@@H]4CC[C@@]3(C)[C@]1(C)CC2 [Compound 7, methyl 2,30-bis-(3-pyridinylidene)-3,20-dioxo-lup-28-oate]",0.313,20.9,> 15,15.4,> 15,65.946 ***,0.210 *,upregulation,upregulation,upregulation,upregulation,slight nucleus fragmentation,nuclear fragmentation and chromatin condensation,slight nucleus fragmentation,nuclear fragmentation and chromatin condensation,nucleus fragmentation,condensation of chromatin,condensation of chromatin,0.990 **,1.360 *,"Bad gene expression, Mean ([6]; listed as compound 7): 155.433 *; Bcl-2 gene expression, Mean ([7]; listed as compound 7): 81.120 ***; Bak gene expression, Mean ([8]; listed as compound 7): 17.743 ***; Bcl-XL gene expression, Mean ([9]; listed as compound 7): 28.893 **; Nuclear changes, DAPI staining ([10]; SK-Mel-28, 1 μM): nuclear fragmentation and chromatin condensation; Nuclear changes, DAPI staining ([11]; 1 μM): nuclear fragmentation and chromatin condensation"
"C[C@H]1[C@@H]2[C@H]3CC[C@@H]4[C@@]5(C)C/C(=C\c6cccnc6)C(=O)C(C)(C)[C@@H]5CC[C@@]4(C)[C@]3(C)CC[C@]23CO[C@@]1(C)[C@@H](C(=O)/C=C/c1cccnc1)C3 [Compound 6, 3-Oxo-2-(3-pyridinylidene)-21-[3-(2E-pyridinyl)-prop-2-en-1-one]-20β,28-epoxy-18α,19βH-ursane]",0.246 **,23.1,> 15,18.6,> 15,15.716 **,0.200 *,downregulated,2.570,downregulated,0.286 *,massive nucleus condensation and fragmentation,occurrence of nuclear residues,massive nucleus condensation and fragmentation,occurrence of nuclear residues,nuclear fragmentation,nuclear fragmentation,chromatin becomes condensed,0.066 ***,0.100 **,"Bad gene expression, Mean ([6]; listed as compound 6): 0.150 *; Bak gene expression, Mean ([8]; listed as compound 6): 0.546 ***"
